Experimental data taken from US20250034186A1, “ANTIVIRAL COMPOUNDS” (priority 2020, published 2025).

How the values were obtained:
RSV A2 = experiment: RSV NHBE EC50, RSV A2 antiviral assay; format: cell-based; conditions: human respiratory syncytial virus, 96 h; RSV A2 in NHBE cells, 4 days
Method: Normal human bronchial epithelial (NHBE) cells were purchased from Lonza (Walkersville, MD, Cat #CC-2540) and cultured in Bronchial Epithelial Growth Media (BEGM) (Lonza, Walkersville, MD, Cat #CC-3170). The cells were passaged 1-2 times per week to maintain <80% confluency. The NHBE cells were discarded after 6 passages in culture.
To conduct the RSV A2 antiviral assay, NHBE cells were plated in 96-well plates at a density of 7,500 cells per well in BEGM and allowed to attach overnight at 37° C. Following attachment, 100 μL of cell culture media was removed and 3-fold serially diluted compound was added using a Hewlett-Packard D300 Digital Dispenser. The final concentration of DMSO was normalized to 0.05%. Following compound addition, the NHBE cells were infected by the addition of 100 μL of RSV A2 at a titer of 1×10^4.5 tissue culture infectious doses/mL in BEGM and then incubated at 37° C. for 4 days. The NHBE cells were then allowed to equilibrate to 25° C. and cell viability was determined by removing 100 μL of culture medium and adding 100 μL of Cell-Titer Glo viability reagent. The mixtures were incubated for 10 minutes at 25° C., and the luminescence signal was quantified on an Envision luminescence plate reader.

HRV16 = HRV16 HeLa EC50; format: cell-based, human rhinovirus; conditions: Human rhinovirus sp., HRV16; H1-HeLa cells, 96 h, 33° C.
Method: H1-HeLa cells, cultured in complete DMEM medium containing 10% heat-inactivated FBS and 1% Penicillin/Streptomycin, were seeded in 96 well plates at 3000 cells/well one day prior to compound dosing and infection. The antiviral activity of each compound was measured in triplicate. Compounds were added directly to the cell cultures in serial 3-fold dilutions using the HP300 digital dispenser (Hewlett Packard, Palo Alto, CA) immediately prior to infection. The plates were transferred to BSL-2 containment and the appropriate dilution of virus stock, previously determined by titration and prepared in cell culture media, was added to test plates containing cells and serially diluted compounds. Each plate included 6 wells of infected untreated cells and 6 wells of uninfected cells that served as 0% and 100% virus inhibition control, respectively. Following the infection, test plates were incubated for 96 h in a tissue culture incubator set to 33° C./5% CO2. Following incubation, the H1-HeLa cells were removed from incubation and allowed to equilibrate to 25° C. Cell viability was determined by removing 100 μL of culture medium and adding 100 μL of Cell-Titer Glo viability reagent. The mixtures were incubated on a shaker for 10 minutes at 25° C., and the luminescence signal was quantified on an Envision luminescence plate reader.

RSV strain A2 = experiment: RSV HEp-2 EC50, infectious cytopathic cell protection assay; format: cell-based; conditions: human respiratory syncytial virus, 96 h; RSV A2 in HEp-2 cells, 4 days, Cell TiterGlo
Method: Antiviral activity against RSV is determined using an infectious cytopathic cell protection assay in HEp-2 cells. In this assay, compounds inhibiting viral infection and/or replication produce a cytoprotective effect against the virus-induced cell killing that can be quantified using a cell viability reagent. The techniques used here are novel adaptations of methods described in published literature (Chapman et al., Antimicrob Agents Chemother. 2007, 51(9):3346-53.).
HEp-2 cells are obtained from ATCC (Manassas, VI) and maintained in MEM media supplemented with 10% fetal bovine serum and penicillin/streptomycin. Cells are passaged twice a week and kept at subconfluent stage. Commercial stock of RSV strain A2 (Advanced Biotechnologies, Columbia, MD) is titered before compound testing to determine the appropriate dilution of the virus stock that generates desirable cytopathic effect in HEp-2 cells.
For antiviral tests, HEp-2 cells are grown in large cell culture flasks to near confluency but not fully so. The compounds to be tested are prediluted in DMSO in 384-well compound dilution plates, either in an 8 or 40 sample per plate standardized dose response format. 3-fold serial dilution increments of each test compound are prepared in the plates and test samples are transferred via acoustic transfer apparatus (Echo, Labcyte) at 100 nL per well into cell culture assay 384-well plates. Each compound dilution is transferred in single or quadruplicate samples into dry assay plates, which are stored until assay is ready to go. The positive and negative controls are laid out in opposite on ends of the plate in vertical blocks (1 column).
Subsequently, an infectious mixture is prepared using an appropriate dilution of virus stock previously determined by titration with cells at a density of 50,000/mL and 20 μL/well is added to test plates w/compounds via automation (uFlow, Biotek). Each plate includes negative and positive controls (16 replicates each) to create 0% and 100% virus inhibition standards, respectively. Following the infection with RSV, testing plates are incubated for 4 days in a 37° C. cell culture incubator. After the incubation, a cell viability reagent, Cell TiterGlo (Promega, Madison, WI) is added to the assay plates, which are incubated briefly, and a luminescent readout is measured (Envision, Perkin Elmer) in all the assay plates. The RSV-induced cytopathic effect, percentage inhibition, is determined from the levels of remaining cell viability. […] Various potent anti-RSV tool compounds are used as positive controls for antiviral activity.

HRV14 = HRV14 HeLa EC50; format: cell-based, human rhinovirus; conditions: Human rhinovirus sp., HRV14; H1-HeLa cells, 96 h, 37° C.
Method: (§1) H1-HeLa cells, cultured in complete RPMI 1640 medium containing 10% heat-inactivated FBS and 1% Penicillin/Streptomycin, were seeded in 96 well plates at 5000 cells/well one day prior to compound dosing and infection. The antiviral activity of each compound was measured in triplicate. Compounds were added directly to the cell cultures in serial 3-fold dilutions using the HP300 digital dispenser (Hewlett Packard, Palo Alto, CA) immediately prior to infection. The plates were transferred to BSL-2 containment and 100 μL of 1/4000 dilution of HRV14 virus stock was added to each well containing cells and serially diluted compounds. Each plate included 6 wells of infected untreated cells and 6 wells of cells containing 5 μM Rupintrivir that served as 0% and 100% virus inhibition control, respectively. Following the infection, test plates were incubated for 96 h in a tissue culture incubator set to 37° C./5% CO2. Following incubation, the H1-HeLa cells were removed from incubation and allowed to equilibrate to 25° C. Cell viability was determined by removing 100 μL of culture medium and adding 100 μL of Cell-Titer Glo viability reagent. The mixtures were incubated on a shaker for 10 minutes at 25° C., and the luminescence signal was quantified on an Envision luminescence plate reader.

HRV1a = experiment: HRV1A HeLa EC50; format: cell-based, human rhinovirus; conditions: Human rhinovirus sp., HRV1A, HeLa, 96 h, read-out: HRV1A HeLa EC50
Method: as §1, with “HRV1a” for “HRV14”

MT-4 cytotoxicity assay = format: cell-based; conditions: human, MT-4 cells (uninfected), 4-5 days, read-out: CC50 MT4
Method: (§2) Cytotoxicity of the compound of Formula I and compounds 1, 2, and 6 was determined in uninfected cells using the cell viability reagent in a similar fashion as described before for other cell types (Cihlar et al., Antimicrob Agents Chemother. 2008, 52(2):655-65.). HEp-2 (1.5×10^3 cells/well) and MT-4 (2×10^3 cells/well) cells were plated in 384-well plates and incubated with the appropriate medium containing 3-fold serially diluted compound ranging from 15 nM to 100,000 nM. Cells were cultured for 4-5 days at 37° C. Following the incubation, the cells were allowed to equilibrate to 25° C., and cell viability was determined by adding Cell-Titer Glo viability reagent. The mixture was incubated for 10 min, and the luminescence signal was quantified using an Envision plate reader. Untreated cell and cells treated at 2 μM puromycin (Sigma, St. Louis, MO) serve as 100% and 0% cell viability control, respectively.

in vitro = in vitro ADME; conditions: human, plasma, 37° C., up to 4 h, read-out: Hum Plasma t1/2
Method: For plasma stability, the compounds were incubated at 2 μM in cynomolgus monkey or human plasma for up to 4 h at 37° C. At desired time points, an aliquot from the incubation was quenched by addition of 9 volumes of 100% acetonitrile supplemented with internal standard. Following the last collection, samples were centrifuged at 3000 g for 30 min and supernatants were transferred to a new plate containing an equal volume of water for analysis by liquid chromatography coupled to triple quadrupole mass spectrometry (LC-MS/MS). Data (analyte to internal standard peak area ratio) were plotted on a semi log scale and fitted using an exponential fit. The half-life (T1/2) was determined assuming first order kinetics.

[1] = Stability assay in human hepatic S9 fractions; format: in vitro ADME; conditions: 37° C., NADPH and UDPGA, read-out: Hum HepS9 t1/2
Method: For S9 stability, the compounds were incubated at 2 μM in cynomolgus monkey or human hepatic S9 fractions for up to 90 min at 37° C. in the presence of NADPH and UDPGA (Phase I and Phase II cofactor, Sigma-Aldrich). At desired time points following compound addition, samples were quenched with 9 volumes of an aqueous solution containing internal standard, 50% acetonitrile and 25% methanol. Sample plates were centrifuged at 3000 g for 30 min, and 10 μL of the resulting solution was analyzed by LC-MS/MS. Data (analyte to internal standard peak area ratio) were plotted on a semi log scale and fitted using an exponential fit. The half-life (T1/2) was determined assuming first order kinetics.

HEp-2 cytotoxicity assay = format: cell-based; conditions: human, HEp-2 cells (uninfected), 4-5 days
Method: as §2

Compound: C[C@H](N[P@@](=O)(OC[C@@]1(C#N)O[C@@H](c2ccc3c(N)ncnn23)[C@H](O)[C@@H]1O)Oc1ccccc1)C(=O)OC1CCCCC1 (single isomer, unassigned) [Formula Ib]
- EC50 (RSV A2): 630 nM
- EC50 (HRV16): 654 nM
- EC50 (RSV strain A2): 2740 nM

Compound: CC(C)OC(=O)[C@H](C)NP(=O)(OC[C@@]1(C#N)O[C@@H](c2ccc3c(N)ncnn23)[C@H](O)[C@@H]1O)Oc1ccccc1 (stereo partly drawn) [Compound 3, isopropyl ((((2R,3S,4R,5S)-5-(4-aminopyrrolo[2,1-f][1,2,4]triazin-7-yl)-2-cyano-3,4-dihydroxytetrahydrofuran-2-yl)methoxy)(phenoxy)phosphoryl)-L-alaninate]
- EC50 (RSV A2): 1150 nM
- EC50 (HRV14): 1810 nM
- EC50 (HRV16): 1420 nM
- EC50 (HRV1a): 735 nM
- EC50 (RSV strain A2): 463 nM

Compound: CC(C)OC(=O)[C@H](C)N[P@](=O)(OC[C@@]1(C#N)O[C@@H](c2ccc3c(N)ncnn23)[C@H](O)[C@@H]1O)Oc1ccccc1 [Compound 4, (S)-isopropyl 2-(((S)-(((2R,3S,4R,5S)-5-(4-aminopyrrolo[2,1-f][1,2,4]triazin-7-yl)-2-cyano-3,4-dihydroxytetrahydrofuran-2-yl)methoxy)(phenoxy)phosphoryl)amino)propanoate]
- EC50 (RSV A2): 879 nM
- EC50 (HRV16): 965 nM
- EC50 (RSV strain A2): 342 nM

Compound: CCC(CC)OC(=O)[C@H](C)NP(=O)(OC[C@@]1(C#N)O[C@@H](c2ccc3c(N)ncnn23)[C@H](O)[C@@H]1O)Oc1ccccc1 (stereo partly drawn) [Compound 5, (2S)-pentan-3-yl 2-(((((2R,3S,4R,5S)-5-(4-aminopyrrolo[2,1-f][1,2,4]triazin-7-yl)-2-cyano-3,4-dihydroxytetrahydrofuran-2-yl)methoxy)(phenoxy)phosphoryl)amino)propanoate]
- EC50 (RSV A2): 1240 nM
- EC50 (HRV14): 3430 nM
- EC50 (HRV16): 3130 nM
- EC50 (HRV1a): 1620 nM
- EC50 (RSV strain A2): 1740 nM

Compound: CCOC(=O)[C@H](C)N[P@](=O)(OC[C@@]1(C#N)O[C@@H](c2ccc3c(N)ncnn23)[C@H](O)[C@@H]1O)Oc1ccccc1 [Compound 8, ethyl ((S)-(((2R,3S,4R,5S)-5-(4-aminopyrrolo[2,1-f][1,2,4]triazin-7-yl)-2-cyano-3,4-dihydroxytetrahydrofuran-2-yl)methoxy)(phenoxy)phosphoryl)-L-alaninate]
- EC50 (RSV A2): 932 nM
- CC50 (MT-4 cytotoxicity assay): 28300 nM
- half-life at 2 μM (in vitro): 6.02 h
- EC50 (HRV16): 678 nM
- half-life at 2 μM [1]: 2 min
- EC50 (RSV strain A2): 91 nM
- CC50 (HEp-2 cytotoxicity assay): > 100000 nM

Compound: C[C@H](NP(=O)(OC[C@@]1(C#N)O[C@@H](c2ccc3c(N)ncnn23)[C@H](O)[C@@H]1O)Oc1ccccc1)C(=O)OC1CCCCC1 (stereo partly drawn) [Formula Ia, (2S)-cyclohexyl 2-(((((2R,3S,4R,5S)-5-(4-aminopyrrolo[2,1-f][1,2,4]triazin-7-yl)-2-cyano-3,4-dihydroxytetrahydrofuran-2-yl)methoxy)(phenoxy)phosphoryl)amino)propanoate]
- EC50 (RSV A2): 76 nM
- EC50 (HRV16): 510 nM
- EC50 (RSV strain A2): 96 nM
